# Test results reported in patent US10670605B2, “Cysteine reactive probes and uses thereof” (The Scripps Research Institute, priority 2015, dated 2020).
# Experiments:
# Experiment in all cases: Competitive isoTOP-ABPP in situ (fragment-treated cells)
# Type in all cases: cell-based
# [1] = biological target: T1, cysteines in MDA-MB-231 and Ramos cells (Homo sapiens, UniProt P50570)
# T1 sequence (P50570 1-870): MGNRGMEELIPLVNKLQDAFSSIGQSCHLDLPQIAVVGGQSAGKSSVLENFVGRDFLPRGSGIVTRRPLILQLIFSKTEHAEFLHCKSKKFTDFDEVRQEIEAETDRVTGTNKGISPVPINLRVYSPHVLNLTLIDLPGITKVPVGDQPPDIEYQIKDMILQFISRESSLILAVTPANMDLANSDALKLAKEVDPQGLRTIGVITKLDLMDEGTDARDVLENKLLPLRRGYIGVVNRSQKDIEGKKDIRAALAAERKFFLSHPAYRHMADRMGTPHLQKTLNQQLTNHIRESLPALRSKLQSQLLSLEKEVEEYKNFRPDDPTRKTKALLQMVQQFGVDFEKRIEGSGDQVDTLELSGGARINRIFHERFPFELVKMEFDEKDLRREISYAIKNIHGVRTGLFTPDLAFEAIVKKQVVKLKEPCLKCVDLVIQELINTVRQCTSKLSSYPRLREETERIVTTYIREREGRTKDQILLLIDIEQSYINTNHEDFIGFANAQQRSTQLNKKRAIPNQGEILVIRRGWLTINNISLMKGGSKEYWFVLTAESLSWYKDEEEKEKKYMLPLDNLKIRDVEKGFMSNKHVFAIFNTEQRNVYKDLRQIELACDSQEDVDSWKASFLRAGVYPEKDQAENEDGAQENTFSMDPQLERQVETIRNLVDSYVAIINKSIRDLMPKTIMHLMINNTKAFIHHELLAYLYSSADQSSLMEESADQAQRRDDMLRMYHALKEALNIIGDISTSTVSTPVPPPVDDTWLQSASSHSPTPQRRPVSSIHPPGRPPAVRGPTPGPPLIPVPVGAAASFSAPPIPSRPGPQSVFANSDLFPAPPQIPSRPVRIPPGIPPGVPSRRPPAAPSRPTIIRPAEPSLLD
# [2] = biological target: T2, cysteines in MDA-MB-231 and Ramos cells (Homo sapiens, UniProt P30101)
# T2 sequence (P30101 25-505): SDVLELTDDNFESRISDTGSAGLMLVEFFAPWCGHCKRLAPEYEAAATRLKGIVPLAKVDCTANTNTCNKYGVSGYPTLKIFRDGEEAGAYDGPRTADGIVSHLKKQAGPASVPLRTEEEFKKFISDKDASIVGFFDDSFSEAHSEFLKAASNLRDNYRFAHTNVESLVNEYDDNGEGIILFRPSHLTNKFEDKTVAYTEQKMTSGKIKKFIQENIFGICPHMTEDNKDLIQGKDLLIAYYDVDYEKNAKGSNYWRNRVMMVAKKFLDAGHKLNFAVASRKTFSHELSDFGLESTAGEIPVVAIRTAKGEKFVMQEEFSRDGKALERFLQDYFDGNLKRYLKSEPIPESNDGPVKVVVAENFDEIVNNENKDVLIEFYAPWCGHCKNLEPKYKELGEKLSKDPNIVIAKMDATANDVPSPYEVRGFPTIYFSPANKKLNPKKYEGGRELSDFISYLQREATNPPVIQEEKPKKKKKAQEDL
# [3] = biological target: T3, cysteines in MDA-MB-231 and Ramos cells (Homo sapiens, UniProt Q9HCC0)
# T3 sequence (Q9HCC0 23-563): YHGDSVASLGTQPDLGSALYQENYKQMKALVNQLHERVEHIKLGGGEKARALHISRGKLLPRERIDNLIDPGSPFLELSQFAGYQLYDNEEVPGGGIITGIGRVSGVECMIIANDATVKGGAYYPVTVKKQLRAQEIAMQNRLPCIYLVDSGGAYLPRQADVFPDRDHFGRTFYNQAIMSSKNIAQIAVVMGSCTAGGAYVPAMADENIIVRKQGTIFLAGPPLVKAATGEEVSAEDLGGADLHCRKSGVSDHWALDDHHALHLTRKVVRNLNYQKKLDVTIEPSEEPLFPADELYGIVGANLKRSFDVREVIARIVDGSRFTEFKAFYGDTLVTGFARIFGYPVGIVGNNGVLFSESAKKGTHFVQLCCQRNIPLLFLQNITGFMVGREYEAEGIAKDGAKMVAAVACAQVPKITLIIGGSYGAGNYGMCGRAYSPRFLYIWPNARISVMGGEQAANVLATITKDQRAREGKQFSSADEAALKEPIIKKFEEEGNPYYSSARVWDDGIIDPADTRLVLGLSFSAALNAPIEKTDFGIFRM
# [4] = biological target: T4, cysteines in MDA-MB-231 and Ramos cells (Homo sapiens, UniProt Q96AB3)
# T4 sequence (Q96AB3 1-205): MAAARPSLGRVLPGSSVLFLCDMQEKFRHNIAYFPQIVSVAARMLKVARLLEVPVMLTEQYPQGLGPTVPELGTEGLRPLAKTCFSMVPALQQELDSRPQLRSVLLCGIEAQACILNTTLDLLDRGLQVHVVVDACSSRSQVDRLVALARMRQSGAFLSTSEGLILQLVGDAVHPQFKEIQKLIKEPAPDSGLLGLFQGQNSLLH
# [5] = biological target: T5, cysteines in MDA-MB-231 and Ramos cells (Homo sapiens, UniProt Q99497)
# T5 sequence (Q99497 1-189): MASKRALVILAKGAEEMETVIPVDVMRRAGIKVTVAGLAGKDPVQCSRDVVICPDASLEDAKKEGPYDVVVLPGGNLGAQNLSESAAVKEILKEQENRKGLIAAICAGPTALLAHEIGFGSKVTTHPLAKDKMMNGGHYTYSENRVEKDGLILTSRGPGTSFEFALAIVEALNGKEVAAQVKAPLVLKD
smiles,measurement,setting,value
COc1ccc2c(c1)CCCN2C(=O)CCl [compound 2],isoTOP-ABPP reactivity P50570_C27 DNM2,"[1]; 200 μM, insitu, 231",4.6
same,isoTOP-ABPP reactivity P30101_057 PDIA3,"[2]; 200 μM, insitu, 231",2.2
same,isoTOP-ABPP reactivity P30101_C406 PDIA3,"[2]; 200 μM, insitu, 231",3.2
same,isoTOP-ABPP reactivity Q9HCC0_C216 MCCC2,"[3]; 200 μM, insitu, 231",4.6
same,isoTOP-ABPP reactivity Q96AB3_C114 ISOC2,"[4]; 200 μM, insitu, 231",1.6
COc1ccc(C2CC(c3cccs3)=NN2C(=O)CCl)cc1 (stereo not shown) [compound 4],isoTOP-ABPP reactivity P50570_C27 DNM2,[1]; 100 μM in situ 231,2.2
same,isoTOP-ABPP reactivity Q99497_C106 PARK7,[5]; 100 μM in situ 231,0.9
same,isoTOP-ABPP reactivity P30101_057 PDIA3,[2]; 100 μM in situ 231,20.0
same,isoTOP-ABPP reactivity P30101_C406 PDIA3,[2]; 100 μM in situ 231,9.0
same,isoTOP-ABPP reactivity Q9HCC0_C216 MCCC2,[3]; 100 μM in situ 231,5.9
same,isoTOP-ABPP reactivity Q96AB3_C114 ISOC2,[4]; 100 μM in situ 231,0.8
COc1cc2c(cc1OC)CN(C(=O)CCl)CC2 [compound 8],isoTOP-ABPP reactivity P30101_057 PDIA3,"[2]; 200 μM, insitu, 231",20.0
same,isoTOP-ABPP reactivity P30101_C406 PDIA3,"[2]; 200 μM, insitu, 231",20.0
same,isoTOP-ABPP reactivity Q9HCC0_C216 MCCC2,"[3]; 200 μM, insitu, 231",3.9
same,isoTOP-ABPP reactivity Q96AB3_C114 ISOC2,"[4]; 200 μM, insitu, 231",4.7
O=C(CCl)N1CCC(Cc2ccccc2)CC1 [compound 9],isoTOP-ABPP reactivity P30101_C406 PDIA3,"[2]; 200 μM, insitu, 231",1.4
O=C(CCl)N1CCN(S(=O)(=O)c2ccccc2F)CC1 [compound 10],isoTOP-ABPP ratio P50570_C27,"[1]; 200 μM, insitu, 231",3.1
same,isoTOP-ABPP ratio Q99497_C106,"[5]; 200 μM, insitu, 231",1.7
same,isoTOP-ABPP ratio P30101_C57,"[2]; 200 μM, insitu, 231",3.3
same,isoTOP-ABPP ratio P30101_C406,"[2]; 200 μM, insitu, 231",3.3
same,isoTOP-ABPP ratio P30101_C406,"[2]; 200 μM, insitu, ramos",1.4
same,isoTOP-ABPP ratio Q9HCC0_C216,"[3]; 200 μM, insitu, 231",2.3
same,isoTOP-ABPP ratio Q96AB3_C114,"[4]; 200 μM, insitu, 231",20.0
Cn1cc(S(=O)(=O)N2CCOCC2)cc1C(=O)NC(=O)CCl [compound 11],isoTOP-ABPP ratio P50570_C27,[1]; 100 μM in situ 231,0.7
same,isoTOP-ABPP ratio Q99497_C106,[5]; 100 μM in situ 231,1.3
same,isoTOP-ABPP ratio P30101_C57,[2]; 100 μM in situ 231,2.2
same,isoTOP-ABPP ratio Q9HCC0_C216,[3]; 100 μM in situ 231,1.9
same,isoTOP-ABPP ratio Q96AB3_C114,[4]; 100 μM in situ 231,0.9
O=C(CCl)NC(=O)NC12CC3CC(CC(C3)C1)C2 [compound 12],isoTOP-ABPP ratio P50570_C27,"[1]; 200 μM, insitu, 231",0.7
same,isoTOP-ABPP ratio Q99497_C106,"[5]; 200 μM, insitu, 231",3.0
same,isoTOP-ABPP ratio P30101_C57,"[2]; 200 μM, insitu, 231",20.0
same,isoTOP-ABPP ratio P30101_C406,"[2]; 200 μM, insitu, 231",20.0
same,isoTOP-ABPP ratio Q9HCC0_C216,"[3]; 200 μM, insitu, 231",20.0
same,isoTOP-ABPP ratio Q96AB3_C114,"[4]; 200 μM, insitu, 231",1.6
O=C(CCl)NCCc1c[nH]c2ccccc12 [compound 13],isoTOP-ABPP ratio P50570_C27,"[1]; 200 μM, insitu, ramos",1.0
same,isoTOP-ABPP ratio Q99497_C106,"[5]; 200 μM, insitu, ramos",3.3
same,isoTOP-ABPP ratio P30101_C57,"[2]; 200 μM, insitu, ramos",1.6
same,isoTOP-ABPP ratio P30101_C406,"[2]; 200 μM, insitu, ramos",2.0
same,isoTOP-ABPP ratio Q9HCC0_C216,"[3]; 200 μM, insitu, ramos",1.8
same,isoTOP-ABPP ratio Q96AB3_C114,"[4]; 200 μM, insitu, 231",2.4
